The values below come from paper PMC9021288 (Nature Communications, 2022).

Series [1] is described as follows: Human PK prediction (allometry, in vitro clearance, GastroPlus). As for the experimental part: A blood sample from the saphenous vein was collected into heparinized capillary tubes at multiple intervals between 0.25 and 24 h after dosing. Subsequently, samples were spun down at 1640 g for 5-10 min at 4 °C within 30 min after collection and plasma was collected. […] Urine was collected following an intravenous dose in both rat and dog, allowing renal clearance to be estimated. Human renal clearance was estimated from dog renal clearance as previously described[40] and other human PK parameters were predicted using allometric scaling and/or in vitro clearance data. PK parameters were calculated by naïve pooled approach using WinNonLin software (Phoenix, version 6.3).

For series [2], the system named is P. falciparum NF54 rings and schizonts. The series is described as follows: Stage-specific activity on synchronized ring and schizont cultures. The format is cell-based, Plasmodium falciparum. As for the experimental part:
Asynchronous NF54 parasites were cultured in a semi-automated shaker system[63] and synchronized once with 5% D-sorbitol. […] This yielded a parasite culture with ≥ 90% rings. To assess the schizont-stage activity of MMV693186, the initial synchronized culture was treated again with sorbitol 7 h later. Subsequently, parasites were cultured for another 17 h to yield a parasite culture of ≥ 90% early schizont stages. The ring and schizont synchronized cultures were diluted to 0.5% and then incubated with either 50 nM DHA or 50 nM MM693183 for 24 h in duplicate. Subsequently, the drug was washed out and parasites were cultured for another 24 h. Parasitemia was determined using Giemsa-stained thin smears at 0 h, 24 h, and 48 h after drug exposure.

The subject of series [3] is P. falciparum 3D7 trophozoite-infected RBCs, CoA pathway metabolites. Kind of series: Metabolomics of treated infected RBCs (LC/MS). The format is cell-based, Plasmodium falciparum. As for the experimental part: P. falciparum metabolomics analysis was performed by LC/MS as previously described. Briefly, parasite cultures were tightly synchronized at the ring stage one cycle prior to extraction. Trophozoite cultures at 5-10% parasitemia were purified to >90% parasitemia by magnetic purification. Parasites were counted using a hemocytometer, aliquoted to 1 × 10^8 cells per condition in 5 ml medium and then placed into an incubator for 1 h to allow them to reach a metabolically stable state. […] Blank processing samples were also quenched in the same manner to assess background metabolite levels. The samples were centrifuged, the supernatant was collected in a new tube, dried using a nitrogen gas drying rack and stored at -80 °C until they were run on the LC/MS platform.
For each analytical run, a pooled sample was generated by combining equivalent volumes of each parasite sample to assess metabolite detection and run at the beginning, middle, and end of each analytical batch to detect any possible time-dependent sensitivity changes. The full metabolomics datasets are publicly available on the Metabolomics Workbench database under ST001985[76].

Values joined by “and” are separate entries in the source; they are usually repeats but may differ in a detail not shown here. Equal entries are not always repeated.

One may read the half-life as how long it takes for the measured level to halve.

On to `C[C@@H](CNC(=O)[C@H](O)C(C)(C)CO)NC(=O)c1cc(F)c(F)cc1F` [MMV693183], for which the “biopharmaceutical classification system class” value in series [1] is recorded as “class I”. In series [1] (allometry with MLP correction), the “estimated human total clearance” value is 1.8 mL/min/kg. In series [1] (human predicted), the “CL, total” value is 1.11 mL/min/kg; the V1 is 0.843 L/kg; the V2 was 1.97 L/kg; the Vss is 2.81 L/kg. Besides, in series [1] (human predicted), the half-life is 32.4 h. Further, the “CL, renal” value in series [1] (human predicted from dog renal clearance) is 0.60 mL/min/kg. Also, the “CL, hepatic” value in series [1] (human predicted from in vitro hepatocyte clearance) was 0.51 mL/min/kg. Further, in series [1] (simple allometry), the allometric clearance exponent is 0.967. In addition, in series [2] (50 nM, 24 h), the “activity against asexual stages” value was “active against both early and late asexual blood stages”. In series [2] (Time (h) 0), the “Parasitemia, rings culture” value worked out at 0.4 and the “Parasitemia, schizonts culture” value was 0.2. In addition, in series [2] (Time (h) 24), the “Parasitemia, rings culture” value came to 0 and the “Parasitemia, schizonts culture” value is listed as 0. Besides, in series [3] (24 nM), the “Fold change 4'P-Pan” value is 0.6372 and 0.7412; the “Fold change Ac-CoA” value is 0.5886 and 0.6667; the “Fold change CoA” value was determined as 1.122; the “Fold change Pan” value is 0.8146 and 0.8416. Besides, in series [3] (240 nM), the “Fold change 4'P-Pan” value is 0.3498 and 0.3568; the “Fold change CoA” value was found to be 1.064; the “Fold change Pan” value is 1.253 and 0.7224. For the same molecule, the “effect on endogenous metabolites” value in series [3] (dose-dependent) was “reduced acetyl-CoA and 4-phosphopantothenate levels”.
